Counter-ions that a name gives are not always drawn.
Molecular target: T1, substance P receptor (Homo sapiens, UniProt P25103)
T1 construct: endogenous in cells; host or cells: IM-9 human lymphoblast cells (membrane preparation)
Experiment: Radioligand receptor binding inhibitory activity using receptor from human lymphoblast cells (IM-9)
Conditions: [125I]-BHSP binding, receptor from IM-9 cells, 25 C, 30 min
Method: Radioligand receptor binding inhibitory activity (Binding inhibitory activity using receptor from human lymphoblast cells (IM-9))
The method of M. A. Cascieri et al., “Molecular Pharmacology 42, p. 458 (1992)” was modified and used. The receptor was. prepared from human lymphoblast cells (IM-9). IM-9 cells (2×10^5 cells/mL) were incubated for 3 days (one liter), which was then subjected to centrifuge for 5 min. at 500×G to obtain cell pellets. The obtained pellets were washed once with phosphate buffer (Flow Laboratories, CAT. No. 28-103-05), which were then homogenized using Polytron homogenizer (“Kinematika”, Germany) in 30 mL of 50 mM Tris-HCl buffer (pH 7.4) containing 120 mM sodium chloride, 5 mM potassium chloride, 2 μg/mL chymostatin, 40 μg/mL bacitracin, 5 μg/mL phosphoramidon, 0.5 mM phenylmethylsulfonyl fluoride, 1 mM ethylenediamine tetra-acetate, which was subjected to centrifuge at 40,000×G for 20 min. The residue was washed twice with 30 mL of the buffer, which was then preserved frozen (−80° C.) as a specimen of the receptor.
The specimen was suspended in a reaction buffer (50 mM Tris-HCl buffer (pH 7.4), 0.02% bovine serum albumin, 1 mM phenylmethylsulfonyl fluoride, 2 μg/mL chymostatin, 40 μg/mL bacitracin and 3 mM manganese chloride) to have protein in the concentration of 0.5 mg/mL of protein and 100 μL portion of the suspension was used in the reaction. After addition of the sample and ^125]-BHSP (0.46 KBq), the reaction was allowed to proceed in 0.2 mL of reaction buffer at […] for 30 min. The amount of nonspecific binding was determined by adding substance P at a final concentration of 2×10^−6 M.
After the reaction, using a cell harvester (290 PHD, Cambridge Technology, Inc, U.S.A.), filtration was carried out through a glass filter (GF/B, Whatman, U.S.A.), which was immersed in 0.1% polyethyleneimine for 24 hrs. and dried. After washing three times with 250 μL of 50 mM Tris-HCl buffer (pH 7.4) containing 0.02% bovine serum albumin, the radioactivity remaining on the filter was. determined with a gamma counter.
The antagonistic activity of each compound obtained in Examples was determined in terms of the concentration necessary to cause 50% inhibition (IC50 value) under the above-described conditions, and the results were shown in Table 14.
The radio ligand means substance P labeled with [^125I].

T1 sequence (P25103 whole entry): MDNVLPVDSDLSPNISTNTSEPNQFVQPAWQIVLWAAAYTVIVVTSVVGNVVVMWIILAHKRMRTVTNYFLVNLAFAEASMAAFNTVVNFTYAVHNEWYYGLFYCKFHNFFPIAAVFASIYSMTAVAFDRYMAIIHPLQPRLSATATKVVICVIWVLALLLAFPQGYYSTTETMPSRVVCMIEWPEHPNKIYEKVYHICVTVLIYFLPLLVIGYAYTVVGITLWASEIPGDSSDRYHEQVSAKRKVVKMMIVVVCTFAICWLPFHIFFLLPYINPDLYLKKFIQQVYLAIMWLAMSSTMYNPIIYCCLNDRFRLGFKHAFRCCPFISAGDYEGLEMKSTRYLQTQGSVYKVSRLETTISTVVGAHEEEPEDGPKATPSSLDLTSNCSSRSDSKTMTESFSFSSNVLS

IC50 [nM] | SMILES
0.035 | C[C@@H](O[C@H]1CCN(C(=O)C2CCN(C3CCOC3=O)CC2)C[C@H]1c1ccccc1)c1cc(C(F)(F)F)cc(C(F)(F)F)c1 (single isomer, unassigned) [Example 34, hydrochloride]
0.043 | C[C@@H](O[C@H]1CCN(C(=O)C2CCN(C3CCOC3=O)CC2)C[C@H]1c1ccccc1)c1cc(C(F)(F)F)cc(C(F)(F)F)c1 (single isomer, unassigned) [Example 35, hydrochloride]
0.026 | CC(=O)N1CCC(C(=O)N2CC[C@H](O[C@H](C)c3cc(C(F)(F)F)cc(C(F)(F)F)c3)[C@H](c3ccccc3)C2)CC1 [Example 36, (3R,4S)-1-[(1-Acetylpiperidin-4-yl)carbonyl]-4-[(1R)-1-[3,5-bis(trifluoromethyl)phenyl]ethoxy]-3-phenylpiperidine]
0.025 | CC(=O)NCC(=O)N1CCC(C(=O)N2CC[C@H](O[C@H](C)c3cc(C(F)(F)F)cc(C(F)(F)F)c3)[C@H](c3ccccc3)C2)CC1 [Example 38, N-[2-[4-[[(3R,4S)-4-[(1R)-1-[3,5-Bis(trifluoromethyl)phenyl]ethoxy]-3-phenylpiperidin-1-yl]carbonyl]piperidin-1-yl]-2-oxoethyl]acetamide]
0.032 | C[C@@H](O[C@H]1CCN(C(=O)C2CCN(C(=O)Cn3cnnn3)CC2)C[C@H]1c1ccccc1)c1cc(C(F)(F)F)cc(C(F)(F)F)c1 [Example 39, (3R,4S)-4-[(1R)-1-[3,5-Bis(trifluoromethyl)phenyl]ethoxy]-3-phenyl-1-[[1-(1H-tetrazol-1-ylacetyl)piperidin-4-yl]carbonyl]piperidine]
0.038 | C[C@@H](O[C@H]1CCN(C(=O)C2CCN(C(=O)N3CCNC3=O)CC2)C[C@H]1c1ccccc1)c1cc(C(F)(F)F)cc(C(F)(F)F)c1 [Example 40, 1-[[4-[[(3R,4S)-4-[(1R)-1-[3,5-Bis(trifluoromethyl)phenyl]ethoxy]-3-phenylpiperidin-1-yl]carbonyl]piperidin-1-yl]carbonyl]imidazolidin-2-one]
0.023 | CC(=O)N[C@H]1CC[C@H](C(=O)N2CC[C@H](O[C@H](C)c3cc(C(F)(F)F)cc(C(F)(F)F)c3)[C@H](c3ccccc3)C2)CC1 [Example 42, N-[trans-4-[[(3R,4S)-4-[(1R)-1-[3,5-Bis(trifluoromethyl)phenyl]ethoxy]-3-phenylpiperidin-1-yl]carbonyl]cyclohexyl]acetamide]
0.053 | CCCC(=O)N[C@H]1CC[C@H](C(=O)N2CC[C@H](O[C@H](C)c3cc(C(F)(F)F)cc(C(F)(F)F)c3)[C@H](c3ccccc3)C2)CC1 [Example 44, N-[trans-4-[[(3R,4S)-4-[(1R)-1-[3,5-Bis(trifluoromethyl)phenyl]ethoxy]-3-phenylpiperidin-1-yl]carbonyl]cyclohexyl]butanamide]
0.075 | CC(=O)N[C@H]1CC[C@@H](C(=O)N2CC[C@H](O[C@H](C)c3cc(C(F)(F)F)cc(C(F)(F)F)c3)[C@H](c3ccccc3)C2)CC1 [Example 54, N-[cis-4-[[(3R,4S)-4-[(1R)-1-[3,5-Bis(trifluoromethyl)phenyl]ethoxy]-3-phenylpiperidin-1-yl]carbonyl]cyclohexyl]acetamide]
0.075 | CCNC(=O)N[C@H]1CC[C@H](C(=O)N2CC[C@H](O[C@H](C)c3cc(C(F)(F)F)cc(C(F)(F)F)c3)[C@H](c3ccccc3)C2)CC1 [Example 63, N-[trans-4-[[(3R,4S)-4-[(1R)-1-[3,5-Bis(trifluoromethyl)phenyl]ethoxy]-3-phenylpiperidin-1-yl]carbonyl]cyclohexyl]-N′-ethylurea]
0.094 | CNC(=O)[C@H]1CC[C@H](C(=O)N2CC[C@H](O[C@H](C)c3cc(C(F)(F)F)cc(C(F)(F)F)c3)[C@H](c3ccccc3)C2)CC1 [Example 68, trans-4-[[(3R,4S)-4-[(1R)-1-[3,5-Bis(trifluoromethyl)phenyl]ethoxy]-3-phenylpiperidin-1-yl]carbonyl]-N-methylcyclohexanecarboxamide]

Further lines, the compound ahead of its results:

SMILES | IC50 [nM]
COc1ccc(-n2nnnc2C(F)(F)F)cc1C(C)N[C@H]1CCN(C(=O)C2CCN(C(C)=O)CC2)C[C@H]1c1ccccc1 (single isomer, unassigned) [Example 83] | 0.058
COc1ccc(-n2nnnc2C(F)(F)F)cc1C(C)N[C@H]1CCN(C(=O)CNC(C)=O)C[C@H]1c1ccccc1 (single isomer, unassigned) [Example 85] | 0.09
CC(C)C(=O)N[C@H]1CC[C@H](C(=O)N2CC[C@H](O[C@H](C)c3cc(C(F)(F)F)cc(C(F)(F)F)c3)[C@H](c3ccccc3)C2)CC1 [Example 45, N-[trans-4-[[(3R,4S)-4-[(1R)-1-[3,5-Bis(trifluoromethyl)phenyl]ethoxy]-3-phenylpiperidin-1-yl]carbonyl]cyclohexyl]-2-methylpropanamide] | 0.05
C[C@@H](O[C@H]1CCN(C(=O)[C@H]2CC[C@H](NC(=O)C3CC3)CC2)C[C@H]1c1ccccc1)c1cc(C(F)(F)F)cc(C(F)(F)F)c1 [Example 46, N-[trans-4-[[(3R,4S)-4-[(1R)-1-[3,5-Bis(trifluoromethyl)phenyl]ethoxy]-3-phenylpiperidin-1-yl]carbonyl]cyclohexyl]cyclopropanecarboxamide] | 0.061
CNC(=O)N[C@H]1CC[C@H](C(=O)N2CC[C@H](O[C@H](C)c3cc(C(F)(F)F)cc(C(F)(F)F)c3)[C@H](c3ccccc3)C2)CC1 [Example 47, N-[trans-4-[[(3R,4S)-4-[(1R)-1-[3,5-Bis(trifluoromethyl)phenyl]ethoxy]-3-phenylpiperidin-1-yl]carbonyl]cyclohexyl]-N′-methylurea] | 0.036
C[C@@H](O[C@H]1CCN(C(=O)[C@H]2CC[C@H](NS(C)(=O)=O)CC2)C[C@H]1c1ccccc1)c1cc(C(F)(F)F)cc(C(F)(F)F)c1 [Example 49, N-[trans-4-[[(3R,4S)-4-[(1R)-1-[3,5-Bis(trifluoromethyl)phenyl]ethoxy]-3-phenylpiperidin-1-yl]carbonyl]cyclohexyl]methanesulfonamide] | 0.055
C[C@@H](O[C@H]1CCN(C(=O)[C@H]2CC[C@H](NC(=O)c3cccs3)CC2)C[C@H]1c1ccccc1)c1cc(C(F)(F)F)cc(C(F)(F)F)c1 [Example 51, N-[trans-4-[[(3R,4S)-4-[(1R)-1-[3,5-Bis(trifluoromethyl)phenyl]ethoxy]-3-phenylpiperidin-1-yl]carbonyl]cyclohexyl]thiophene-2-carboxamide] | 0.077
C[C@@H](O[C@H]1CCN(C(=O)[C@H]2CC[C@H](NC(=O)CN3CCCCC3=O)CC2)C[C@H]1c1ccccc1)c1cc(C(F)(F)F)cc(C(F)(F)F)c1 [Example 57, N-[trans-4-[[(3R,4S)-4-[(1R)-1-[3,5-Bis(trifluoromethyl)phenyl]ethoxy]-3-phenylpiperidin-1-yl]carbonyl]cyclohexyl]-2-(2-oxopiperidin-1-yl)acetamide] | 0.057
C[C@@H](O[C@H]1CCN(C(=O)[C@H]2CC[C@H](NC(=O)CCCCCl)CC2)C[C@H]1c1ccccc1)c1cc(C(F)(F)F)cc(C(F)(F)F)c1 [Example 59, N-[trans-4-[[(3R,4S)-4-[(1R)-1-[3,5-Bis(trifluoromethyl)phenyl]ethoxy]-3-phenylpiperidin-1-yl]carbonyl]cyclohexyl]-5-chloropentanamide] | 0.087
COC(=O)N[C@H]1CC[C@H](C(=O)N2CC[C@H](O[C@H](C)c3cc(C(F)(F)F)cc(C(F)(F)F)c3)[C@H](c3ccccc3)C2)CC1 [Example 61, Methyl trans-4-[[(3R,4S)-4-[(1R)-1-[3,5-bis(trifluoromethyl)phenyl]ethoxy]-3-phenylpiperidin-1-yl]carbonyl]cyclohexylcarbamate] | 0.098
CC(C)NC(=O)N[C@H]1CC[C@H](C(=O)N2CC[C@H](O[C@H](C)c3cc(C(F)(F)F)cc(C(F)(F)F)c3)[C@H](c3ccccc3)C2)CC1 [Example 65, N-[trans-4-[[(3R,4S)-4-[(1R)-1-[3,5-Bis(trifluoromethyl)phenyl]ethoxy]-3-phenylpiperidin-1-yl]carbonyl]cyclohexyl]-N′-isopropylurea] | 0.099
C[C@@H](O[C@H]1CCN(C(=O)[C@H]2CC[C@H](NC(=O)N(C)C)CC2)C[C@H]1c1ccccc1)c1cc(C(F)(F)F)cc(C(F)(F)F)c1 [Example 66, N′-[trans-4-[[(3R,4S)-4-[(1R)-1-[3,5-Bis(trifluoromethyl)phenyl]ethoxy]-3-phenylpiperidin-1-yl]carbonyl]cyclohexyl]-N,N-dimethylurea] | 0.072
